The structures appear in SMILES notation. “And” between values parts separate entries of the source, which are not always exact repeats. Identical values can stand only once.

For one test, the system named is HBsAg. In words: HBsAg antigenicity of NAC-treated HBV-positive supernatant with or without dialysis. Format: biochemical, hepatitis B virus. Conditions: 15 min incubation with NAC, dialysis against TNE buffer at 4° C. overnight versus not dialyzed.
A further test has as its system vaccinia viruses. In words: Plaque assay of vaccinia virus pre-incubated with NAC on CV1 cells. Format: cell-based. Conditions: pre-incubation with 3, 10, 30 mM NAC, assay variation ±9%.
For test [1], the system named is human immunodeficiency virus (HIV). In words: p24-Ag test in cell culture medium of HIV-infected H9 cells, virions treated with NAC prior to infection. Format: cell-based. Conditions: for p24-Ag content in the cell culture medium, extinction at 492 nm: day 26 after infection, NAC-treated virions, exclusion limit <0.093. How it is done: (§1) In order to examine whether NAC influences the HIV infection of cells, HIV-permissive cells ([…]) were incubated together with HIV-positive cell culture supernatant and the syncytia formation taking place upon successful infection of the host cell was observed. The H9 cell line is a CD4+ T-cell line of human origin (Popovic et al., 1984, Science 224:497-500). The HI virions (viral titer of the original solution is 10^7 viruses/ml) were initially pre-incubated together with NAC at room temperature for two hours (final NAC concentration 0.09 M, dissolved in serum-free cell culture medium) and then mixed with cell culture medium in a decadic dilution series (10^−1 to 10^−5). The same was made analogously with the control without NAC addition. Thereafter, the thus pretreated virions (and the untreated control, respectively) were added to the H9 cell culture for two hours to enable the adsorption of the viruses. Then, the suspension was washed with NAC-free medium and 48-well cell culture plates were covered therewith. Pour parallel assays were carried out for each dilution series. The giant cell formation was observed microscopically over an observation period of 26 days and assessed on a scale from 0 (no syncytia detectable) to 3 (great number of syncytia). It can be seen in connection with the untreated control (FIG. 1) that the syncytia formation is delayed when the viral titer decreases. The degree of syncytia formation is thus directly proportional to the number of infectious viruses. While with a viral titer of 10^5 the syncytia formation starts within four days already, it is delayed by about 2 weeks when the original virus solution has been diluted 10,000 times.
This reduction of the infectiosity titer could also be confirmed by means of the p24-Ag test. For this purpose, the cell culture medium was renewed four days prior to the end of the experiment and the p24-Ag content of the cell culture medium was quantified upon termination of the experiment (day 26) (TABLE I). The p24-Ag values of the untreated control were always clearly positive.

The subject of test [2] is HBeAg (hepatitis-B virus e antigen). The test can be described thus: Enzyme immunoassay (Abbott HBe EIA) of HBeAg in HepG2-2.2.15 supernatant treated with NAC. Format: biochemical. The settings on record: 50 mM NAC.
Test [3] relates to human immunodeficiency virus (HIV). In words: Syncytia formation of H9 cells infected with HIV virions pre-incubated with NAC. The format is cell-based. Conditions: for Test positives p/4 (syncytia formation): virions pre-incubated with 0.09 M NAC for 2 h, 4 parallel assays. How it is done:
as §1
The delay of giant cell formation, which is shown in FIG. 1, is due to a reduction of the number of infectious virions—because of a correlation between viral titer and the number of syncytia. It is in no case caused by an influence of the metabolism of the host cell. The reduced capability to form giant cells (FIG. 1) can be quantified as titer exponent n by observing the laws established by Spearmann-Kärber.
With a total number of 4 preparations per dilution series there is [formula]
Thus, nNAC=−2.5 follows for the titer exponent after NAC treatment. Since the dilution stage of the untreated control, where syncytia formation could no longer be observed, was not determined accurately in this experiment, the maximum value for this preparation, i.e., 10^−6 was assumed as a calculation basis. Correspondingly, the titer of the untreated control is 10^−5,5 or less. The titer after the NAC treatment is 10^−2,5.

Test [4] deals with HBsAg (hepatitis-B virus surface antigen). In words: Enzyme immunoassay (Abbott Auszyme) of HBsAg in HepG2-2.2.15 supernatant treated with NAC. The format is biochemical. Conditions: 50 mM NAC. The protocol: The cell culture supernatant of a HBV-producing cell line (HepG2-2.2.15 cells, Sells et al., 1984, Proc. Natl. Acad. U.S.A. 84:1005-1009) was separated from the cells and then the viral antigens (HBsAg, hepatitis-B virus “surface” antigen) of the viral envelope were identified by means of an enzyme immunoassay (EIA). In a parallel experimental assay, the cell culture supernatant was treated with NAC directly before the EIA was carried out. […] Since as is known the main antigenic domain of HBsAg is stabilized by numerous disulfide bridges, it can be inferred from this experiment that NAC effects a change in the three-dimensional structure on the virus surface, which is caused by a separation of disulfide bridges. These very viral surface structures are essential for the attachment of the virus to its host cell and thus for its infectiosity.

In the case of `CC(=O)N[C@@H](CS)C(=O)O` [NAC, N-acetyl cysteine], in the test with HBsAg, the “effect of NAC on the viruses (HBsAg antigenicity) after removing NAC by dialysis” value is “irreversible”. For the same compound, the “reduction of the viral titer of the vaccinia virus suspension” value in the test with vaccinia viruses is “up to 70%”. In addition, in test [1] (from an HIV dilution factor of 1/100 on, day 26), the “p24-Ag content in the cell culture medium versus untreated control” value was “marked reduction”. In addition, the “p24-Ag content in the cell culture medium, extinction at 492 nm” value in test [1] (virus dilution 10^-1) is over 2.0 O.D. 492 nm; in test [1] (virus dilution 10^-5), 0.069 O.D. 492 nm and 0.04 O.D. 492 nm and 0.044 O.D. 492 nm. Besides, the “recognition of HBeAg by EIA” value in test [2] is on record as “recognized unrestrictedly”. The “reduction of the viral titer, measured on the basis of syncytia formation capability” value in test [3] (0.09 M NAC versus untreated control) is “at least three decimal exponents”. The “titer exponent n after NAC treatment (Spearmann-Kärber)” value in test [3] (0.09 M NAC, 2 h, room temperature, syncytia formation) was −2.5. In test [3] (NAC-treated virions diluted by more than 100 times (viral titer <10^4), observation period of four weeks), the “syncytia formation within the observation period” value is listed as “no longer possible to observe syncytia formation”. Also, the “Test positives p/4 (syncytia formation)” value is recorded as 4/4 in test [3] (class limit -1 (virus dilution 10^-1)); 1/4 in test [3] (class limit -2 (virus dilution 10^-2)); 1/4 in test [3] (class limit -3 (virus dilution 10^-3)); 2/4 in test [3] (class limit -4 (virus dilution 10^-4)); 0/4 in test [3] (class limit -5 (virus dilution 10^-5)). Moreover, the “detection of HBsAg by EIA” value in test [4] is recorded as “not possible”.

Source of the values: patent publication US6426370B1, “Use of thiol compounds in viral inactivation” (priority 2000, dated 2002).
